Test results: patent US20020009421A1, “Therapy following skin injury from exposure to ultraviolet radiation” (priority 2000, published 2002)

Legend:
[1] = system: sunburn; assay: In Vivo Evaluation: sunburn in a human subject after about six hours of intense sunlight, oral self-administration; conditions: for relief of pain: oral self-administration, adult with severe sunburn, celecoxib 100 mg
Excerpt: 1. Subject: An adult, person of light complexion whose skin had not been substantially exposed to strong sunlight for approximately six months.
2. Protocol: The subject was exposed to intense sunlight at a swimming pool for approximately six hours.
3. […] At that time the subject self-administered an oral dose of acetaminophen (Extra Strength Tylenol®) to relieve the pain. […] Later in the evening the subject was unable to sleep due to the continued pain. At that time the subject self-administered a 100 mg dose of Celebrex® (celecoxib). […] Approximately twelve hours later the subject took a second dose of celecoxib to relieve the onset of discomfort due to the sunburn.

[2] = system: UV radiation-induced tumor formation and UV-B mediated inflammatory response; conditions: oral administration, cited from earlier work
[3] = system: UV-B mediated injury; conditions: cited from earlier work

| SMILES | relief of pain [1] | tumor formation ([2]; animals chronically exposed to UV radiation) | acute UV-B mediated inflammatory response involving increased cell proliferation and edema ([2]; following acute or chronic exposure to UV radiation) | UV-B induced prostaglandin synthesis [2] | time to almost complete relief of pain following administration ([1]; 100 mg oral dose of Celebrex, adult with sunburn) [h] | healing of the burn (blistering, peeling of surface skin) ([1]; two oral doses of celecoxib about twelve hours apart, subject's report) | cutaneous inflammatory response after exposure of skin to UV-B radiation ([3]; oral administration) | parameters of UV-B mediated injury ([3]; topical application) |
| --- | --- | --- | --- | --- | --- | --- | --- | --- |
| CC(=O)Nc1ccc(O)cc1 [acetaminophen] | no relief in pain |  |  |  |  |  |  |  |
| Cc1ccc(-c2cc(C(F)(F)F)nn2-c2ccc(S(N)(=O)=O)cc2)cc1 [celecoxib, 4-[5-(4-methylphenyl)-3-(trifluoromethyl)-1H-pyrazol-1-yl]benzenesulfonamide] | almost complete relief of pain | reduced tumor formation | failed to inhibit the acute UV-B mediated inflammatory response | block the UV-B induced prostaglandin synthesis | ≤ 1 | rapid healing of the burn with no blistering or peeling of surface skin | failed to block the cutaneous inflammatory response | reduce many of the parameters of UV-B mediated injury |
